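GI50 marks 50% less growth. TGI marks complete inhibition of growth.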
Legend:
Assay in all cases: inhibition of tumour cell growth, NCI panel, 384-well format
[1] = test system: EKVX NSCLC
[2] = test system: KM12 colon
[3] = test system: HL-60(TB) leukemia
[4] = test system: SW-620 colon
[5] = test system: MDA-MB-231 breast
[6] = test system: SK-MEL-28 melanoma
[7] = test system: OVCAR-4 ovarian
[8] = test system: IGROV1 ovarian
[9] = test system: SNB-19 CNS
[10] = test system: CAKI-1 renal
[11] = test system: SF-295 CNS
[12] = test system: M14 melanoma
[13] = test system: HOP-62 NSCLC
[14] = test system: CCRF-CEM leukemia
[15] = test system: UACC-62 melanoma
[16] = test system: T-47D breast
[17] = test system: COLO 205 colon
[18] = test system: K-562 leukemia
[19] = test system: SN12C renal
[20] = test system: HCT-116 colon
[21] = test system: MDA-MB-468 breast
[22] = test system: MOLT-4 leukemia
[23] = test system: ACHN renal
[24] = test system: SF-268 CNS
[25] = test system: SNB-75 CNS
[26] = test system: SK-OV-3 ovarian
[27] = test system: MALME-3M melanoma
[28] = test system: OVCAR-8 ovarian
[29] = test system: DU-145 prostate
[30] = test system: NCI-H226 lung
[31] = test system: NCI-H522 lung
[32] = test system: UO-31 renal
[33] = test system: NCI-H460 NSCLC
[34] = test system: OVCAR-5 ovarian
[35] = test system: NCI-H23 lung
[36] = test system: HS 578T breast
[37] = test system: BT-549 breast
[38] = test system: HCC-2998 colon
[39] = test system: A498 renal
[40] = test system: SF-539 CNS
[41] = test system: NCI-H322M lung
[42] = test system: SK-MEL-5 melanoma
[43] = test system: NCI/ADR-RES ovarian
[44] = test system: MDA-MB-435 melanoma
[45] = test system: TK-10 renal
[46] = test system: MCF7 breast
[47] = test system: LOX IMVI melanoma

COCCOc1cnc2ccn([C@H](C)c3nnc4c(F)cc(-c5cnn(C)c5)cn34)c(=O)c2c1
GI50 [1]: > 100 µM
TGI [1]: > 100 µM
GI50 [2]: 24.5 µM
TGI [2]: > 100 µM
GI50 [3]: > 100 µM
TGI [3]: > 100 µM
GI50 [4]: > 100 µM
TGI [4]: > 100 µM
GI50 [5]: > 100 µM
TGI [5]: > 100 µM
GI50 [6]: > 100 µM
TGI [6]: > 100 µM
GI50 [7]: 98 µM
TGI [7]: > 100 µM
GI50 [8]: > 100 µM
TGI [8]: > 100 µM
GI50 [9]: > 100 µM
TGI [9]: > 100 µM
GI50 [10]: > 56.9 µM
TGI [10]: > 100 µM
GI50 [11]: 85.2 µM
TGI [11]: > 100 µM
GI50 [12]: > 100 µM
TGI [12]: > 100 µM
GI50 [13]: > 100 µM
TGI [13]: > 100 µM
GI50 [14]: > 100 µM
TGI [14]: > 100 µM
GI50 [15]: 58.1 µM
TGI [15]: > 100 µM
GI50 [16]: > 100 µM
TGI [16]: > 100 µM
GI50 [17]: > 100 µM
TGI [17]: > 100 µM
GI50 [18]: > 100 µM
TGI [18]: > 100 µM
GI50 [19]: > 100 µM
TGI [19]: > 100 µM
GI50 [20]: > 100 µM
TGI [20]: > 100 µM
GI50 [21]: > 100 µM
TGI [21]: > 100 µM
GI50 [22]: > 94 µM
TGI [22]: > 100 µM
GI50 [23]: > 100 µM
TGI [23]: > 100 µM
GI50 [24]: > 100 µM
TGI [24]: > 100 µM
GI50 [25]: > 100 µM
TGI [25]: > 100 µM
GI50 [26]: > 100 µM
TGI [26]: > 100 µM
GI50 [27]: > 100 µM
TGI [27]: > 100 µM
GI50 [28]: > 100 µM
TGI [28]: > 100 µM
GI50 [29]: > 100 µM
TGI [29]: > 100 µM
GI50 [30]: > 100 µM
TGI [30]: > 100 µM
GI50 [31]: > 100 µM
TGI [31]: > 100 µM
GI50 [32]: > 100 µM
TGI [32]: > 100 µM
GI50 [33]: > 100 µM
TGI [33]: > 100 µM
GI50 [34]: > 100 µM
TGI [34]: > 100 µM
GI50 [35]: > 100 µM
TGI [35]: > 100 µM
GI50 [36]: > 100 µM
TGI [36]: > 100 µM
GI50 [37]: > 100 µM
TGI [37]: > 100 µM
GI50 [38]: > 100 µM
TGI [38]: > 100 µM
GI50 [39]: > 100 µM
TGI [39]: > 100 µM
GI50 [40]: > 100 µM
TGI [40]: > 100 µM
GI50 [41]: > 100 µM
TGI [41]: > 100 µM
GI50 [42]: > 100 µM
TGI [42]: > 100 µM
GI50 [43]: > 100 µM
TGI [43]: > 100 µM
GI50 [44]: > 100 µM
TGI [44]: > 100 µM
GI50 [45]: > 100 µM
TGI [45]: > 100 µM
GI50 [46]: > 100 µM
TGI [46]: > 100 µM
GI50 [47]: > 100 µM
TGI [47]: > 100 µM
